Legend:
[1] = system: Puccinia recondita (wheat); experiment: Fungicidal test against foliar disease A (foliage spray plus soil drench); format: in vivo; conditions: 100 ppm spray and drench; 10 days
[2] = system: Phytophthora infestans (tomato); format: in vivo; conditions: 100 ppm spray and drench; 3 days
[3] = system: Plasmopara viticola (vine); experiment: Fungicidal test against foliar disease C (foliage spray plus soil drench); format: in vivo; conditions: 100 ppm spray and drench; 10 days
Uncinula necator (vine) = experiment: Fungicidal test against foliar disease D (foliage spray plus soil drench); format: in vivo; conditions: 100 ppm spray and drench; 10 days
[4] = system: Piricularia oryzae (rice); format: in vivo; conditions: 100 ppm spray and drench; 7 days
[5] = system: Tetranychus telarius (red spider mites, adults); experiment: Pest toxicity test; format: in vivo; conditions: 0.1% by weight; French bean; 3 days
Aphis fabae = experiment: Pest toxicity test; format: in vivo; conditions: 0.1% by weight; broad bean; 2 days
Megoura viceae = experiment: Pest toxicity test; format: in vivo; conditions: 0.1% by weight; broad bean; 2 days
[6] = system: Aedes aegypti (mosquito larvae); experiment: Pest toxicity test; format: in vivo; conditions: 0.01% by weight; water; 1 day
[7] = system: Aedes aegypti (mosquito adults); experiment: Pest toxicity test; format: in vivo; conditions: 0.01% by weight; plywood; 1 day
[8] = system: Musca domestica (houseflies); experiment: Pest toxicity test, contact test; format: in vivo; conditions: 0.1% by weight; milk/sugar; 2 days; flies sprayed directly
[9] = system: Pieris brassicae (cabbage white caterpillars); experiment: Pest toxicity test; format: in vivo; conditions: 0.1% by weight, 2 days
[10] = system: Plutella maculipennis (diamond back moth larvae); experiment: Pest toxicity test; format: in vivo
[11] = system: Phaedon cochleariae (mustard beetles); experiment: Pest toxicity test; format: in vivo
Lettuce = experiment: Herbicidal test, pre- and post-emergence; format: in vivo; conditions: 10 kg/ha; scale 0 to 3 (complete kill)
Tomato = experiment: Herbicidal test, pre- and post-emergence; format: in vivo; conditions: 10 kg/ha; scale 0 to 3 (complete kill)
Wheat = experiment: Herbicidal test, pre- and post-emergence; format: in vivo; conditions: 10 kg/ha; scale 0 to 3 (complete kill)
Maize = experiment: Herbicidal test, pre- and post-emergence; format: in vivo; conditions: 10 kg/ha; scale 0 to 3 (complete kill)
[12] = system: Tetranychus telarius (red spider mites, eggs); experiment: Pest toxicity test; format: in vivo; conditions: 0.1% by weight; French bean; 3 days
[13] = system: Agriolimax reticulatus (slugs); experiment: Molluscicidal activity test; format: in vivo, Agriolimax reticulatus (Mull); conditions: pellet with 4% by weight; 6 days; 10°C
Protocol: A weighed sample of the compound under test was dissolved in 0.5 c.c. of an ethanol and acetone mixture 50:50 v/v). The solution was diluted with 0.5 cc water and poured onto a calf feeding pellet in a glass Petri dish. The pellet was then air dried for 24 hours. The weight of compound used was chosen so that the dried pellet contained 4% by weight of the active ingredient. Two replicates each consisting of a plastic Petri dish containing a pellet, 2 slugs, and a moistened filter paper to maintain a high relative humidity were used in each test. The dishes were left in a cold room (10°C.) After 6 days the kill was assessed.
The slugs used were Agriolimax reticulatus (Mull), and they had been starved for 24 hours before the commencement of the tests.

Sugar beet = experiment: Further herbicidal test, various rates; format: in vivo; conditions: scale 0 to 5 (complete kill)
Kale = experiment: Further herbicidal test, various rates; format: in vivo; conditions: scale 0 to 5 (complete kill)
Carrot = experiment: Further herbicidal test, various rates; format: in vivo; conditions: scale 0 to 5 (complete kill)
Pea = experiment: Further herbicidal test, various rates; format: in vivo; conditions: scale 0 to 5 (complete kill)
Onion = experiment: Further herbicidal test, various rates; format: in vivo; conditions: scale 0 to 5 (complete kill)
Barley = experiment: Further herbicidal test, various rates; format: in vivo; conditions: scale 0 to 5 (complete kill)
Rice = experiment: Further herbicidal test, various rates; format: in vivo; conditions: scale 0 to 5 (complete kill)
Oat = experiment: Further herbicidal test, various rates; format: in vivo; conditions: scale 0 to 5 (complete kill)
[14] = 0.1% by weight, mustard/paper, 2 days

## Fc1nc(F)c(Cl)c(Nc2c(Cl)c(Cl)c(Cl)c(Cl)c2Cl)c1Cl [Compound 9, 3,5-Dichloro-2,6-difluoro-4(pentachloroanilino)pyridine]
[1]
  Amount of disease grading, disease A: 3 (0 to 5)
[2]
  Amount of disease grading, disease B: 0 (61 to 100)
[3]
  Amount of disease grading, disease C: 0 (61 to 100)
Uncinula necator (vine)
  Amount of disease grading, disease D: 3 (0 to 5)
[4]
  Amount of disease grading, disease E: 3 (0 to 5)
[5]
  Mortality grading (kill): 3 (3 represents over 90% kill)
Aphis fabae
  Mortality grading (kill): 0 (O represents less than 30% kill)
Megoura viceae
  Mortality grading (kill): 0 (O represents less than 30% kill)
[6]
  Mortality grading (kill): 3 (3 represents over 90% kill)
[7]
  Mortality grading (kill): 0 (O represents less than 30% kill)
[8]
  Mortality grading (kill), contact test: 3 (3 represents over 90% kill)
[9]
  Mortality grading (kill): 0 (O represents less than 30% kill)
[10]; in vivo
  Mortality grading (kill): 3 (key: O represents less than 30% kill; 1 represents 30 - 49% kill; 2 represents 60 - 90% kill; 3 represents over 90% kill; C indicates a chemosterilant effect.; A indicates an antifeeding effect.)
[11]; in vivo
  Mortality grading (kill): 1 (key: O represents less than 30% kill; 1 represents 30 - 49% kill; 2 represents 60 - 90% kill; 3 represents over 90% kill; C indicates a chemosterilant effect.; A indicates an antifeeding effect.)

## N#Cc1cc([N+](=O)[O-])ccc1Nc1c(Cl)c(F)nc(F)c1Cl [Compound 26, 4(2-Cyano-4-nitroanilino)-3,5-dichloro-2,6-difluoropyridine]
[2]
  Amount of disease grading, disease B (Table 4): 3 (0 to 5)
[3]
  Amount of disease grading, disease C (Table 4): 3 (0 to 5)
[4]
  Amount of disease grading, disease E (Table 4): 0 (61 to 100)
Lettuce
  Damage to plants, post-emergence: 3
  Damage to plants, pre-emergence: 3
Tomato
  Damage to plants, post-emergence: 0
  Damage to plants, pre-emergence: 3
Wheat
  Damage to plants, pre-emergence: 1
Maize
  Damage to plants, post-emergence: 0
  Damage to plants, pre-emergence: 0

## O=[N+]([O-])c1ccc(Nc2c(F)c(F)nc(F)c2Cl)c(C(F)(F)F)c1 [Compound 32, 3-Chloro-4(4-nitro-2-trifluoromethylanilino)-2,5,6-trifluoropyridine]
[1]
  Amount of disease grading, disease A (Table 4): 3 (0 to 5)
[3]
  Amount of disease grading, disease C (Table 4): 3 (0 to 5)
Uncinula necator (vine)
  Amount of disease grading, disease D (Table 4): 3 (0 to 5)
[5]
  Mortality grading (kill): 3 (3 represents over 90% kill)
[12]
  Mortality grading (kill): 3 (3 represents over 90% kill)
Aphis fabae
  Mortality grading (kill): 3 (3 represents over 90% kill)
Megoura viceae
  Mortality grading (kill): 0 (O represents less than 30% kill)
[6]
  Mortality grading (kill): 3 (3 represents over 90% kill)
[7]
  Mortality grading (kill): 2 (2 represents 60 - 90% kill)
[9]
  Mortality grading (kill): 3 (3 represents over 90% kill)
[10]; [14]
  Mortality grading (kill): 2 (2 represents 60 - 90% kill)
[11]; [14]
  Mortality grading (kill): 0 (O represents less than 30% kill)
[13]
  % Kill of slugs: 100%
Lettuce
  Damage to plants, post-emergence: 3
  Damage to plants, pre-emergence: 3
Tomato
  Damage to plants, post-emergence: 3
  Damage to plants, pre-emergence: 3
Wheat
  Damage to plants, post-emergence: 0
  Damage to plants, pre-emergence: 3
Maize
  Damage to plants, post-emergence: 0
  Damage to plants, pre-emergence: 1
Sugar beet; 1 kg/hectare
  Damage to plants, post-emergence: 5
  Damage to plants, pre-emergence: 4
Sugar beet; 5 kg/hectare
  Damage to plants, post-emergence: 5
  Damage to plants, pre-emergence: 5
Kale; 1 kg/hectare
  Damage to plants, post-emergence: 5
  Damage to plants, pre-emergence: 4
Kale; 5 kg/hectare
  Damage to plants, post-emergence: 4
  Damage to plants, pre-emergence: 5
Carrot; 1 kg/hectare
  Damage to plants, post-emergence: 2
  Damage to plants, pre-emergence: 3
Carrot; 5 kg/hectare
  Damage to plants, post-emergence: 4
  Damage to plants, pre-emergence: 5
Pea; 1 kg/hectare
  Damage to plants, post-emergence: 3
  Damage to plants, pre-emergence: 3
Pea; 5 kg/hectare
  Damage to plants, post-emergence: 2
  Damage to plants, pre-emergence: 5
Onion; 1 kg/hectare
  Damage to plants, post-emergence: 1
Onion; 5 kg/hectare
  Damage to plants, post-emergence: 0
  Damage to plants, pre-emergence: 5
Barley; 1 kg/hectare
  Damage to plants, post-emergence: 1
  Damage to plants, pre-emergence: 4
Barley; 5 kg/hectare
  Damage to plants, post-emergence: 1
  Damage to plants, pre-emergence: 4
Rice; 1 kg/hectare
  Damage to plants, post-emergence: 0
  Damage to plants, pre-emergence: 4
Rice; 5 kg/hectare
  Damage to plants, post-emergence: 0
  Damage to plants, pre-emergence: 5
Oat; 1 kg/hectare
  Damage to plants, post-emergence: 1
  Damage to plants, pre-emergence: 3
Oat; 5 kg/hectare
  Damage to plants, post-emergence: 0
  Damage to plants, pre-emergence: 4

## Fc1nc(F)c(Cl)c(Nc2c(Cl)c(F)c(Cl)c(F)c2Cl)c1Cl [Compound 43, 3,5-Dichloro-2,6-difluoro-4(3,5-difluoro-2,4,6-trichloroanilino) pyridine]
Uncinula necator (vine)
  Amount of disease grading, disease D (Table 4): 3 (0 to 5)
[5]
  Mortality grading (kill): 3 (3 represents over 90% kill)
[12]
  Mortality grading (kill): 3 (3 represents over 90% kill)
Aphis fabae
  Mortality grading (kill): 3 (3 represents over 90% kill)
Megoura viceae
  Mortality grading (kill): 3 (3 represents over 90% kill)
[6]
  Mortality grading (kill): 3 (3 represents over 90% kill)
[7]
  Mortality grading (kill): 0 (O represents less than 30% kill)
[8]
  Mortality grading (kill), contact test: 3 (3 represents over 90% kill)
[9]
  Mortality grading (kill): 3 (3 represents over 90% kill)
[10]; in vivo
  Mortality grading (kill): 2 (key: O represents less than 30% kill; 1 represents 30 - 49% kill; 2 represents 60 - 90% kill; 3 represents over 90% kill; C indicates a chemosterilant effect.; A indicates an antifeeding effect.)
[11]; in vivo
  Mortality grading (kill): 0 (key: O represents less than 30% kill; 1 represents 30 - 49% kill; 2 represents 60 - 90% kill; 3 represents over 90% kill; C indicates a chemosterilant effect.; A indicates an antifeeding effect.)
[13]
  % Kill of slugs: 100%
Lettuce
  Damage to plants, post-emergence: 3
  Damage to plants, pre-emergence: 3
Tomato
  Damage to plants, post-emergence: 3
  Damage to plants, pre-emergence: 1
Wheat
  Damage to plants, post-emergence: 0
  Damage to plants, pre-emergence: 1
Maize
  Damage to plants, post-emergence: 2
  Damage to plants, pre-emergence: 0
Sugar beet; 5 kg/hectare
  Damage to plants, post-emergence: 5
  Damage to plants, pre-emergence: 0
Kale; 5 kg/hectare
  Damage to plants, post-emergence: 5
  Damage to plants, pre-emergence: 1
Carrot; 5 kg/hectare
  Damage to plants, post-emergence: 5
  Damage to plants, pre-emergence: 0
Pea; 5 kg/hectare
  Damage to plants, post-emergence: 5
  Damage to plants, pre-emergence: 0
Onion; 5 kg/hectare
  Damage to plants, pre-emergence: 0
Barley; 5 kg/hectare
  Damage to plants, post-emergence: 3
  Damage to plants, pre-emergence: 1
Rice; 5 kg/hectare
  Damage to plants, post-emergence: 1
  Damage to plants, pre-emergence: 0
Oat; 5 kg/hectare
  Damage to plants, post-emergence: 4
  Damage to plants, pre-emergence: 0
